Holding throughout (experiment): KINOMEscan
What all share (type): binding
What all share (details): read-out: % control activity remaining

The target of one assay is T1, PIM1 (Homo sapiens, UniProt P11309).
T1 construct: purchased Eurofins DiscoverX KINOMEscan

The target of a further assay is T2, SRMS (Homo sapiens, UniProt Q9H3Y6).
T2 construct: purchased Eurofins DiscoverX KINOMEscan

A further assay deals with T3, PHKG2 (Homo sapiens, UniProt P15735).
T3 construct: purchased Eurofins DiscoverX KINOMEscan
T3 sequence (P15735 1-406): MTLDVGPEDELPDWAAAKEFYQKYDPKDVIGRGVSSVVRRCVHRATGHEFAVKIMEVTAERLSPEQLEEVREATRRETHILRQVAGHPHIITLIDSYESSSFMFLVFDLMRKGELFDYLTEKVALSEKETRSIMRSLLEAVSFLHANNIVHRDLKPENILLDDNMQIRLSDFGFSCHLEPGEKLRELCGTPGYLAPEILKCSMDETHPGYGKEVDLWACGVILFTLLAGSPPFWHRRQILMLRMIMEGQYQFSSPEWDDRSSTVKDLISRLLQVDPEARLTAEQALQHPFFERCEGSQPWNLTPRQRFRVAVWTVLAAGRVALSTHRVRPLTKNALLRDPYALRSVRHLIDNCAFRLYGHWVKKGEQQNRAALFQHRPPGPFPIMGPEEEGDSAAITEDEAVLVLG

The next assay addresses T4, MARK2 (Homo sapiens, UniProt Q7KZI7).
T4 construct: purchased Eurofins DiscoverX KINOMEscan

The target in the next assay is T5, MUSK (Homo sapiens, UniProt O15146).
T5 construct: purchased Eurofins DiscoverX KINOMEscan
T5 sequence (O15146 24-869): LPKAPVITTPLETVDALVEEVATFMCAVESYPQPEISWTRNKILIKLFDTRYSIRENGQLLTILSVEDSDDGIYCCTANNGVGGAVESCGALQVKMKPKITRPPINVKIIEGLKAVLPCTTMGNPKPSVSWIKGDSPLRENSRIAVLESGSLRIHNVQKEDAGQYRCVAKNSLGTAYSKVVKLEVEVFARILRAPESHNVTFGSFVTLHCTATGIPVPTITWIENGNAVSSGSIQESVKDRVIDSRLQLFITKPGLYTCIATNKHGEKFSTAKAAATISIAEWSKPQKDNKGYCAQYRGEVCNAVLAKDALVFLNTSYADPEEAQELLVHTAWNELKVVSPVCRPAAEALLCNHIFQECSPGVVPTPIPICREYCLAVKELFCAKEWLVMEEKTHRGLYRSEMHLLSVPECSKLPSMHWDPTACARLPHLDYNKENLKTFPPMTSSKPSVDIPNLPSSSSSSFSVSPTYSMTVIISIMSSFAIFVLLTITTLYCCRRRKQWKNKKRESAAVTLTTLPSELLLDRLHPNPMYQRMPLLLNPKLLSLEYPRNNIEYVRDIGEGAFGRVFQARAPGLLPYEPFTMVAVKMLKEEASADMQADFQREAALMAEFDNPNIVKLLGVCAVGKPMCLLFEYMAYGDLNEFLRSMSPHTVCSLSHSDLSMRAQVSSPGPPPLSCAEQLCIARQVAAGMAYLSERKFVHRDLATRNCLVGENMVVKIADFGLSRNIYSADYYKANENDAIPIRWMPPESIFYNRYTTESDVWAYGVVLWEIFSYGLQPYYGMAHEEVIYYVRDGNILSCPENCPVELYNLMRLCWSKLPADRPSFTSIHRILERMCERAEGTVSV

The next assay addresses T6, KIT(L576P) (Homo sapiens, UniProt P10721, L576P).
T6 construct: purchased Eurofins DiscoverX KINOMEscan

The target of another assay is T7, KIT(D816H) (Homo sapiens, UniProt P10721, D816H).
T7 construct: purchased Eurofins DiscoverX KINOMEscan

Another assay deals with T8, FRK (Homo sapiens, UniProt P42685).
T8 construct: purchased Eurofins DiscoverX KINOMEscan

Assay [1] deals with T9, ABL1(H396P)-phosphorylated (Homo sapiens, UniProt P00519, H396P).
T9 construct: purchased Eurofins DiscoverX KINOMEscan

Another assay deals with T10, PIK3CA(M1043I) (Homo sapiens, UniProt P42336, M1043I).
T10 construct: purchased Eurofins DiscoverX KINOMEscan

For a further assay, the target named is T11, PLK1 (Homo sapiens, UniProt P53350).
T11 construct: purchased Eurofins DiscoverX KINOMEscan

Assay [2] has as its target T12, TYK2(JH1domain-catalytic) (Homo sapiens, UniProt P29597).
T12 construct: TYK2(JH1domain-catalytic); purchased Eurofins DiscoverX KINOMEscan
T12 sequence (P29597 871-1187 limits assumed): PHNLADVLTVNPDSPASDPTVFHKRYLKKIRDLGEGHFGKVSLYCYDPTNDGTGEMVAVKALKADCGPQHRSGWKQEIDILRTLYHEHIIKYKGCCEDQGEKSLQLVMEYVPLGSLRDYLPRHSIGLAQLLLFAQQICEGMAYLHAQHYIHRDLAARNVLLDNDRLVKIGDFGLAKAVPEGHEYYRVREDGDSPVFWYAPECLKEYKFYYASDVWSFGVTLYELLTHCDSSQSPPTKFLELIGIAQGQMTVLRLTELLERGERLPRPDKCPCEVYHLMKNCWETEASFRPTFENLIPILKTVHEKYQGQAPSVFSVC

Another assay concerns the target T13, ERK3 (Homo sapiens, UniProt Q16659).
T13 construct: purchased Eurofins DiscoverX KINOMEscan

In a further assay the target is T14, ACVR1B (Homo sapiens, UniProt P36896).
T14 construct: purchased Eurofins DiscoverX KINOMEscan
T14 sequence (P36896 24-505): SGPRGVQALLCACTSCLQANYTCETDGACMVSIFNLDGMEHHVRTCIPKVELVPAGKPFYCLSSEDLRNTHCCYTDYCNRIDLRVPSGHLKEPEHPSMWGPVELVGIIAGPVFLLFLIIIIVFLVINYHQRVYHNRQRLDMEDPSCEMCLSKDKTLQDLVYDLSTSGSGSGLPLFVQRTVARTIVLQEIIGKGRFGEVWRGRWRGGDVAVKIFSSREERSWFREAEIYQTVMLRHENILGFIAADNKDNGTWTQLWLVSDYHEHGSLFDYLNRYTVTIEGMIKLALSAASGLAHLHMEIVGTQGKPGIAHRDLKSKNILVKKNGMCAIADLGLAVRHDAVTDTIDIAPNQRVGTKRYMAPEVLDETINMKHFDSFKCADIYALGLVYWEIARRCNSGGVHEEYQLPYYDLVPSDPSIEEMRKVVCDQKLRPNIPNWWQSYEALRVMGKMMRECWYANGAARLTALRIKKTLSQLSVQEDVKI

T6 sequence (P10721 26-976 L576P): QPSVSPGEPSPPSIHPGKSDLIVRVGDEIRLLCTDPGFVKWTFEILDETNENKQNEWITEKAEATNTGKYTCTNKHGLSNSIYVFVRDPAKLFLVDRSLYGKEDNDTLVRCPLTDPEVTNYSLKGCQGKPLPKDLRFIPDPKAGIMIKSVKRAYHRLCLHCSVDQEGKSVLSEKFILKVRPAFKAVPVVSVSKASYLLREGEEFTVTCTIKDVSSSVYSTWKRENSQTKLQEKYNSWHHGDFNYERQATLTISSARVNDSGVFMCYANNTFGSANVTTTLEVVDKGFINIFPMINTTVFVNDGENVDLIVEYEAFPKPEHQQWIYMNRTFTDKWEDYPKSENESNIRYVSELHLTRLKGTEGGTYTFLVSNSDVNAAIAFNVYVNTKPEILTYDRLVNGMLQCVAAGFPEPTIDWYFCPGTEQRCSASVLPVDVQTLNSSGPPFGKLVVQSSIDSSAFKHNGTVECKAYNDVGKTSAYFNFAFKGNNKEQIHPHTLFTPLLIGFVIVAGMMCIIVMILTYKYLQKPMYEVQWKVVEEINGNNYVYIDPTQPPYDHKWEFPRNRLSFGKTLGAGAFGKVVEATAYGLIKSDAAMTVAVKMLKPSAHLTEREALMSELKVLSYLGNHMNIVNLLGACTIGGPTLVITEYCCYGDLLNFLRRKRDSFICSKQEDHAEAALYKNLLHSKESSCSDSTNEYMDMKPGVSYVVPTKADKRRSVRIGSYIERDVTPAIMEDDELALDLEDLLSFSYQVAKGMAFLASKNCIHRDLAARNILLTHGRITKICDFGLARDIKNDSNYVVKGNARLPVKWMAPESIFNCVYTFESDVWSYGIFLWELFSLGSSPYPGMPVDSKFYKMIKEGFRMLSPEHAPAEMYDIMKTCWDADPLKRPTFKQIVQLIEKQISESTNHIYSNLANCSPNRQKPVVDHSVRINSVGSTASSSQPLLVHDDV
T8 sequence (P42685 whole entry): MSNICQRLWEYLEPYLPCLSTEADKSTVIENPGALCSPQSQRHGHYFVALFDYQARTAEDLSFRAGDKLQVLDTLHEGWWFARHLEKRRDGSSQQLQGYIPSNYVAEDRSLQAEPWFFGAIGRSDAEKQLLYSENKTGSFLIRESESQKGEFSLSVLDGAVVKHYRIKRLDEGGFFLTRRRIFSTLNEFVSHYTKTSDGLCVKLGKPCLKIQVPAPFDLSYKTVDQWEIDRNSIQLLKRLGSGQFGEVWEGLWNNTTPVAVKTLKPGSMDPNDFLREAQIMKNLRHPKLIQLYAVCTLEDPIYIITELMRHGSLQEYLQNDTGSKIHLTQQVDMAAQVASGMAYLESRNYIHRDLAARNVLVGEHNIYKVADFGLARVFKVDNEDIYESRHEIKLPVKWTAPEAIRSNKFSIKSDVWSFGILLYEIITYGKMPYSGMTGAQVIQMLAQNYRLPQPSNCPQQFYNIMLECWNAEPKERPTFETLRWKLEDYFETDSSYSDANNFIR
T1 sequence (P11309 whole entry): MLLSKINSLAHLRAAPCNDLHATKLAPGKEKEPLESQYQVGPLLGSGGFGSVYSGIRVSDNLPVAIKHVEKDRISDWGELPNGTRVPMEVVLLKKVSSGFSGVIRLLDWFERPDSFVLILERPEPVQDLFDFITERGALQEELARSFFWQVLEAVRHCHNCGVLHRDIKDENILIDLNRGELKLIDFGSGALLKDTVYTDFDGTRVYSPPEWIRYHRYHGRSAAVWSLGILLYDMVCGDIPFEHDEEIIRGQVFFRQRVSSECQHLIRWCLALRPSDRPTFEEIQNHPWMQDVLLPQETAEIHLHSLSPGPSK
T13 sequence (Q16659 whole entry): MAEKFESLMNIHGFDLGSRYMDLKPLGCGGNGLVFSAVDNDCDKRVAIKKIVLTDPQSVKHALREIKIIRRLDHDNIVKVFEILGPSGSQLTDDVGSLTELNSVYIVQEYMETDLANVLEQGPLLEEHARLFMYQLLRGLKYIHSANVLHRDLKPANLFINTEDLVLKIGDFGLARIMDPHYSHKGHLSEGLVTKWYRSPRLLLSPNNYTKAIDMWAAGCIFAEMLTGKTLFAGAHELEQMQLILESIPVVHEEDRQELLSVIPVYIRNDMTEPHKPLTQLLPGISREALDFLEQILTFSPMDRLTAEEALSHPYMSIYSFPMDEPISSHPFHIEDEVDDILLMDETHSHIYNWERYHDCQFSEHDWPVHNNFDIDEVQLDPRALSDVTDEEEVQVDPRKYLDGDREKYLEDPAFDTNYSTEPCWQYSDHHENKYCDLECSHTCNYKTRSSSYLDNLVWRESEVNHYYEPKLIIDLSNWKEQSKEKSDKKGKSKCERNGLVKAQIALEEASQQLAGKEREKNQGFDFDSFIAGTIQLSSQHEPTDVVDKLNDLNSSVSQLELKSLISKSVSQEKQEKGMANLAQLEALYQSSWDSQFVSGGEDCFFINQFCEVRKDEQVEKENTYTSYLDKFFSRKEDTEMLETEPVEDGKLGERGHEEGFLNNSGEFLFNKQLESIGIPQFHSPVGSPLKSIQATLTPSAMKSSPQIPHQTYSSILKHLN
T7 sequence (P10721 26-976 D816H): as the sequence (P10721 26-976 L576P) above, with P551L, D791H counted along it
T4 sequence (Q7KZI7 whole entry): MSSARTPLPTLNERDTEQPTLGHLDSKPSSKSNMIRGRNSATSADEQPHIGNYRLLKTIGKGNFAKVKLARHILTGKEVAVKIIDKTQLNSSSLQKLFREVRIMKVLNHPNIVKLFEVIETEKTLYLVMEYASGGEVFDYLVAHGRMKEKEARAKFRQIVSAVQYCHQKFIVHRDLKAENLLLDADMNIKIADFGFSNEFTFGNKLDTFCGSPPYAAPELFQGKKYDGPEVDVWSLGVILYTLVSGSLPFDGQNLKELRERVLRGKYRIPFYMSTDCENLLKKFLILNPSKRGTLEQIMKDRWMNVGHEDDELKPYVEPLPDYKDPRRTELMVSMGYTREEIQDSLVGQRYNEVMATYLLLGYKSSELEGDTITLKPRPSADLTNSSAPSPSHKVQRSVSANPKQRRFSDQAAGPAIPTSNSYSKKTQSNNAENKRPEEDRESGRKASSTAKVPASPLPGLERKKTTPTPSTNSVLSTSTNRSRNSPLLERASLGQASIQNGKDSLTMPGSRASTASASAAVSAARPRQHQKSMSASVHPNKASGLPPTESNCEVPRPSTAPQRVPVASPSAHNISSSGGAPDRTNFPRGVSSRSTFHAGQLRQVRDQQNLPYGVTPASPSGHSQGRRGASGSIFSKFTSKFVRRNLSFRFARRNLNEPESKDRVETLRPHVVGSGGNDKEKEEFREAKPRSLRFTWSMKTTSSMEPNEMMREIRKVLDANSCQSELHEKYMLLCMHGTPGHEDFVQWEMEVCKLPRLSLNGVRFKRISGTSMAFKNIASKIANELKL
T11 sequence (P53350 whole entry): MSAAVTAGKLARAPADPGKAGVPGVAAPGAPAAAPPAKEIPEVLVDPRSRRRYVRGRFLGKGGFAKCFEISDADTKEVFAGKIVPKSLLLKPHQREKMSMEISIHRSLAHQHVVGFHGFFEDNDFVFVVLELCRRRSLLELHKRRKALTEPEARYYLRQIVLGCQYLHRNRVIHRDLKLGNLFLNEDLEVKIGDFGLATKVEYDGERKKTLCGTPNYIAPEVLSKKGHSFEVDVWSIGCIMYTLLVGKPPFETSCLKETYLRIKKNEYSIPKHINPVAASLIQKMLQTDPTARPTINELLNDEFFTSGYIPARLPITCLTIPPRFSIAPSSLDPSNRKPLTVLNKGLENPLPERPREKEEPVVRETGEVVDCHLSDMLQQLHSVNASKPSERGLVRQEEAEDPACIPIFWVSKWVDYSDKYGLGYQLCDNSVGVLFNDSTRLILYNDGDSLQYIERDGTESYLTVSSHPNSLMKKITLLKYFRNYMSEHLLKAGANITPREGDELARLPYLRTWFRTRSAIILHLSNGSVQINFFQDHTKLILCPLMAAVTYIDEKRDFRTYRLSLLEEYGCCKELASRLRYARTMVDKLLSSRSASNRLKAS
T2 sequence (Q9H3Y6 whole entry): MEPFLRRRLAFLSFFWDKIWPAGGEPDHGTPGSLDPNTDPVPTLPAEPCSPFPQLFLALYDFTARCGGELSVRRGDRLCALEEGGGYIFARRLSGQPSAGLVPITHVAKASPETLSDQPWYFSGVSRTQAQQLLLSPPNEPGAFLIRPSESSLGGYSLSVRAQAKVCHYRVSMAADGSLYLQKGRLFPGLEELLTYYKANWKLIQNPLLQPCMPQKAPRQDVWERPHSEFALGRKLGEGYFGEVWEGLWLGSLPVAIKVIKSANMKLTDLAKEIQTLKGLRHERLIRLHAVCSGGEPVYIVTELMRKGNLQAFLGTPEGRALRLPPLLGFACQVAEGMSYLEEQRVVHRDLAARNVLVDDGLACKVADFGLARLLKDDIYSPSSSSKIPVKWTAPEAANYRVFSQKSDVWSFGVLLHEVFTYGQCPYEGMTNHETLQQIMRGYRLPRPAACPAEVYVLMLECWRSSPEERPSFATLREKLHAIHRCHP

In the case of `Clc1cc(NCC2CC2)c2ncc(-c3ccc4[nH]ncc4c3)n2n1` [compound 2, 6-Chloro-N-(cyclopropylmethyl)-3-(1H-indazol-5-yl)imidazo[1,2-b]pyridazin-8-amine], the remaining binding at 1 µM at PIM1 stood at 100%; at SRMS, 91%; on PHKG2 it was 85%; at MARK2 it was 96%; at MUSK, 72%; on KIT(L576P) it was 1.2%. Besides, the remaining binding at 1 µM was determined as 100% on KIT(D816H); 90% on FRK; 73% in assay [1]; 59% at PIK3CA(M1043I); 97% on PLK1; 87% in assay [2]. The values for the remaining binding at 1 µM at ERK3 and on ACVR1B were 96% and 89%, respectively.
For `O=C(CN1CCOCC1)N[C@H]1CC[C@H](Nc2cc(Cl)nn3c(-c4ccc5[nH]ncc5c4)cnc23)CC1` [compound 26], the remaining binding at 1 µM on PIM1 was determined as 68%; on SRMS, 86%; at PHKG2, 29%; at MARK2, 88%; at MUSK it was 42%; at KIT(L576P), 0%. Further, the remaining binding at 1 µM worked out at 63% on KIT(D816H); 96% at FRK; 46% in [1]; 81% on PIK3CA(M1043I); 90% at PLK1; 100% in assay [2]. Moreover, the remaining binding at 1 µM was determined as 68% on ERK3 and 91% on ACVR1B.
Regarding `CN1CCC(CNc2cc(Cl)nn3c(-c4cc5nc(Nc6ccccc6)[nH]c5cc4F)cnc23)CC1` [compound 31, 6-Chloro-3-(6-fluoro-2-(phenylamino)-1H-benzo[d]imidazol-5-yl)-N-((1-methylpiperidin-4-yl)methyl)imidazo[1,2-b]pyridazin-8-amine], the remaining binding at 1 µM is 95% at PIM1; 95% at SRMS; 98% at PHKG2; 100% on MARK2; 40% at MUSK; 61% on KIT(L576P). Besides, the remaining binding at 1 µM at KIT(D816H) was 96%; at FRK, 92%; in assay [1], 67%; at PIK3CA(M1043I), 78%; at PLK1, 96%; in assay [2], 74%. For the same compound, the remaining binding at 1 µM on ERK3 turned out to be 94%; at ACVR1B, 100%.

The values above are taken from article PMC6437697 (Journal of Medicinal Chemistry, 2019).
